From PMC12259270, “Sensory neuron–expressed FGF13 controls nociceptive signaling in diabetic neuropathy models” (The Journal of Clinical Investigation, 2025)
Several values for one entry are separate records, joined by “and”; a condition that tells them apart may be missing. Equal values may be shown once. Residues, ends and D or L forms follow the SMILES beside them. *: point of attachment. Cbz = O=C(OCc1ccccc1)*; OtBu = CC(C)(C)O*

Assays:
Nav1.7 CTD = target: T1, Nav1.7 CTD (Homo sapiens, UniProt Q15858); assay: SPR, compound binding to Nav1.7-CTD peptide
T1 construct: purchased Ontores Biotechnologies Co; host or cells: chemical synthesis

human Nav1.5 = target: T2, human Nav1.5 (Homo sapiens, UniProt Q14524); assay: Whole-cell patch-clamp, HEK293 cells stably expressing human Nav1.5; assay type: cell-based; conditions: for Activation / Long-term inactivation, 2nd Pulse / Long-term inactivation, 3rd Pulse / Long-term inactivation, 4th Pulse / Peak Density / Steady state inactivation / Tau (τ): HEK293 Nav1.5
T2 construct: expressed in transfected cells; host or cells: HEK293 stably expressing human Nav1.5
Method: Whole-cell patch clamp electrophysiology
HEK293-Nav1.7 cells, HEK293 stably expressing human Nav1.6 (HEK-Nav1.6), HEK293 stably expressing human Nav1.5 (HEK-Nav1.5), human hIPSC-derived sensory neurons (RealDRGTM from Anatomic Incorporated 1020F1-1M) and donor-derived DRG neurons were plated at low density on glass coverslips and processed for whole-cell patch clamp electrophysiology in voltage-clamp and/or current clamp mode. Whole-cell patch electrophysiological experiments were conducted following previously published studies (26). Current densities were obtained by dividing INa amplitude by membrane capacitance. Current –voltage relationships were generated by plotting current density as a function of the […]. Conductance (G Na) was calculated by the […]
where INa is the current amplitude at voltage Vm, and Erev is the Na+ reversal potential.
Activation curves were derived by plotting normalized GNa as a function of test potential and fitted using […]
Where GNa,Max is the maximum conductance, Va is the membrane potential of half-maximal activation, Em is the membrane voltage and k is the slope factor. For steady -state inactivation, normalized current amplitude (INa/INa,Max) at the test potential was plotted as a function of prepulse potential (Vm) and fitted using the […]
Where Vh is the potential of half-maximal inactivation, E m is the membrane voltage, and k is the slope factor.
Transient INa inactivation decay was estimated with the standard exponential equation. Inactivation time constant (tau, τ) was fitted with the following equation: […]
where I(t) is the amplitude of the current at time t and Iss is the steady-state current during a single voltage-step.
The goodness of fitting was determined by correlation coefficient (R), and the cutoff of R was set at 0.85. To observe effects on long-term inactivation (LTI), a four-step protocol was employed during which cells were subjected to four 0 mV, 20 ms depolarization pulses separated by −90 mV, 40 ms recovery intervals. To control for various cell sizes, the current densities were calculated by dividing INa peak current amplitude/membrane capacitance (Cm). To represent the fraction of channels entering into LTI, the peak INa observed during depolarization cycles 2-4 was normalized to the peak INa observed during depolarization cycle 1 (INa/INa,Cycle 1) and plotted as a function of the depolarization cycle.
The cumulative (frequency-dependent) use-dependency was determined by applying 20 pulses with a depolarization to −10 mV (50 ms duration) and 50 ms recovery intervals with a train of 20 pulses at 10 Hz from a holding potential at -70 mV. The current pulses were normalized to the first reco rded pulse and the currents at the 2nd to 20th pulses were compared. The same train was used to record use-dependency at various frequencies […]
The rate of recovery from inactivation was recorded at -80 mV with a standard repriming voltage protocol.
The cells were prepulsed to -20 mV for 20 ms to inactivate all currents, then driven back to the recovery potential (Vrec) for increasing recovery durations before the test pulse to 0 mV. The maximum pulse rate was 0.5 Hz. The […]
follows previous publications (16). The time constants were estimated from single exponential decay to time courses measured at recovery potentials ranging from -140 to -60 mV with the protocol as mentioned above.
Electrophysiological Recordings
HEK293 cells: Electrophysiological recordings in HEK293 stably expressing Nav1.7 (HEK-Nav1.7), Nav1.5 (HEK-Nav1.5) or Nav1.6 (HEK-Nav1.6) were performed at room temperature using a MultiClamp 700B or an Axopatch 200B amplifier (Molecular Devices) after incubating coverslips for 60 minutes either with 0.1% DMSO or 50 μM PW164 or ZL192 in the extracellular solution. The composition of recording solutions consisted of the […]
following salts: extracellular (mM): 140 NaCl, 3 KCl, 1 MgCl2, 1 CaCl2, 10 HEPES, 10 glucose, pH 7.3; […]
intracellular (mM): 130 CH3O3 SCs, 1 EGTA, 10 NaCl, 10 HEPES, pH 7.3. […]

[1] = Blood pressure and body weight after dosing, C57BL/6 mice; conditions: for Diastolic / MAP / Systolic / Body weight, Pre-dose / Body weight, Terminal: PW164 15 mpk i.d.
[2] = 0h after dosing, individual No. 85, 87, 88, 89, 91, 15 mg/kg
[3] = 2h after dosing, individual No. 85, 87, 88, 89, 91, 15 mg/kg
[4] = 8h after dosing, individual No. 85, 87, 88, 89, 91, 15 mg/kg
[5] = individual No. 85, 87, 88, 89, 91, 15 mg/kg

T2 sequence (Q14524 whole entry): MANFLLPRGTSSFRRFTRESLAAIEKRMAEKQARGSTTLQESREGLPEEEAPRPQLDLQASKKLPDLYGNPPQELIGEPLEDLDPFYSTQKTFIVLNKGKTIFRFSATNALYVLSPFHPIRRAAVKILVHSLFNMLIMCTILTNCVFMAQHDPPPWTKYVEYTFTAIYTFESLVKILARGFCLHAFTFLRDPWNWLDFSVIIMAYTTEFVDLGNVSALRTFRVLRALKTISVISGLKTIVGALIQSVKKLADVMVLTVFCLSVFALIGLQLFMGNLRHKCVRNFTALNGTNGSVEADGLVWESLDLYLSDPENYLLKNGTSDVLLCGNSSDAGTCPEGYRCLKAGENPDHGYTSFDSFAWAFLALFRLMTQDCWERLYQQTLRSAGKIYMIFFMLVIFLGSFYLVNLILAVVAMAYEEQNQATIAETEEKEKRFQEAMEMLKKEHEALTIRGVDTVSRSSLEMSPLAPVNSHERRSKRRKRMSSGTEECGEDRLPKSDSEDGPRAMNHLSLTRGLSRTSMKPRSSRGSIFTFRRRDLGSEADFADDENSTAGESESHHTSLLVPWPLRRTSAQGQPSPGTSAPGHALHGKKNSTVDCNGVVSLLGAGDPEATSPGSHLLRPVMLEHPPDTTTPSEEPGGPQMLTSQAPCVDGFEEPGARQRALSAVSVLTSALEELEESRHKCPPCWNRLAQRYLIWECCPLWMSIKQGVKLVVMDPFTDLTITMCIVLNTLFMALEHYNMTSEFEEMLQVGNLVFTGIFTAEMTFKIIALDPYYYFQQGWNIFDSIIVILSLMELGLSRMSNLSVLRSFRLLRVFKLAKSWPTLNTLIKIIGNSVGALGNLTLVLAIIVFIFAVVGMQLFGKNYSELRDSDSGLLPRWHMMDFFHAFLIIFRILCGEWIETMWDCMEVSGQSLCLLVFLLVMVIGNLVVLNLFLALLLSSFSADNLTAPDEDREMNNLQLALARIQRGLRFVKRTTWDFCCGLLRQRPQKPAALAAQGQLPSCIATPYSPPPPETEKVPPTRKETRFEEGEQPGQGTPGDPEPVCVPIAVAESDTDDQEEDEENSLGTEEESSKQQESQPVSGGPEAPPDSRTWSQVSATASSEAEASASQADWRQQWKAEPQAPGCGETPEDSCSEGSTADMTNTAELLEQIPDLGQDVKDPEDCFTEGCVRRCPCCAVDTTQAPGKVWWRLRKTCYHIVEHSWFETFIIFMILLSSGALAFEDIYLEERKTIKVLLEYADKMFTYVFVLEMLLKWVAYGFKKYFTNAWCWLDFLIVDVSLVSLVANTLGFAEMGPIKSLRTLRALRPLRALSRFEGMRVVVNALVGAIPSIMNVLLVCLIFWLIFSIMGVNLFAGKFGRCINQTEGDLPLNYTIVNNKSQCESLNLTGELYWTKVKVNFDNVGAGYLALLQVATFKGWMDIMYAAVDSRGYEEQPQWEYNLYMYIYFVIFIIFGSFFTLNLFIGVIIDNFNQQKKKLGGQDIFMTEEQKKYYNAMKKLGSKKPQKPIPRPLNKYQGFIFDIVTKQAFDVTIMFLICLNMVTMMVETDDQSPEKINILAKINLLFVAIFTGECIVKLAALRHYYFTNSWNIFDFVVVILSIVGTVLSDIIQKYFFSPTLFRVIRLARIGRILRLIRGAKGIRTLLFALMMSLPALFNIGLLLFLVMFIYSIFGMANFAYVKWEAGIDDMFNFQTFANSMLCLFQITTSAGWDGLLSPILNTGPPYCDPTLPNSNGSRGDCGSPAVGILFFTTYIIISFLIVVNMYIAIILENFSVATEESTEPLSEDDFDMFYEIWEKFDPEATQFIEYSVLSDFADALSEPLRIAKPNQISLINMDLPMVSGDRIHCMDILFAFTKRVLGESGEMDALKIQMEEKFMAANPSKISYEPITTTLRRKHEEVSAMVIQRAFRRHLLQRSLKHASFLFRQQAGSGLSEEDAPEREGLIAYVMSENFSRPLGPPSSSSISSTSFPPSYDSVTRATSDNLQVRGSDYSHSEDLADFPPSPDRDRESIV
T1 sequence (Q15858 1888-1910 limits assumed): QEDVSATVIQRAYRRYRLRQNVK

COC(=O)[C@@H](NC(=O)[C@H](CCC(=O)OC(C)(C)C)NC(=O)[C@H](CC(C)C)NC(=O)[C@@H]1CCCN1C(=O)OCc1ccccc1)C(C)C [PW164] (Cbz-PLE(OtBu)V-OMe)
KD, binding to Nav1.7 CTD (Nav1.7 CTD): no interaction
Activation (human Nav1.5; FGF13-GFP + PW164): −37.38 ± 2.1 mV
Long-term inactivation, 2nd Pulse (human Nav1.5; FGF13-GFP + PW164): −89.1 ± 1.71 % maximal Na+ current
Long-term inactivation, 3rd Pulse (human Nav1.5; FGF13-GFP + PW164): −86.58 ± 1.69 % maximal Na+ current
Long-term inactivation, 4th Pulse (human Nav1.5; FGF13-GFP + PW164): −84.72 ± 1.83 % maximal Na+ current
Peak Density (human Nav1.5; FGF13-GFP + PW164): −203.0 ± 15.6 pA/pF
Steady state inactivation (human Nav1.5; FGF13-GFP + PW164): −75.9 ± 2.1 mV
Tau (τ) (human Nav1.5; FGF13-GFP + PW164): 0.90 ± 0.04 ms
Activation (human Nav1.5; GFP + PW164): −38.11 ± 1.8 mV
Long-term inactivation, 2nd Pulse (human Nav1.5; GFP + PW164): −91.7 ± 1.27 % maximal Na+ current
Long-term inactivation, 3rd Pulse (human Nav1.5; GFP + PW164): −85.98 ± 2.18 % maximal Na+ current
Long-term inactivation, 4th Pulse (human Nav1.5; GFP + PW164): −84.62 ± 2.28 % maximal Na+ current
Peak Density (human Nav1.5; GFP + PW164): −314.9 ± 17.9 pA/pF
Steady state inactivation (human Nav1.5; GFP + PW164): −82.7 ± 1.5 mV
Tau (τ) (human Nav1.5; GFP + PW164): 1.12 ± 0.07 ms
activity on Nav1.5 currents (human Nav1.5; Nav1.5-expressing HEK293 cells alone or with FGF13-1b or FGF13-1a): inactive
Diastolic ([1]; 0h after dosing, Mean): 81
MAP ([1]; 0h after dosing, Mean): 92
Systolic ([1]; 0h after dosing, Mean): 114
Diastolic [1, 2]: 95 and 77 and 98 and 72 and 63
MAP [1, 2]: 105 and 81 and 78 and 103 and 92
Systolic [1, 2]: 120 and 101 and 108 and 118 and 121
Diastolic ([1]; 2h after dosing, Mean): 74
MAP ([1]; 2h after dosing, Mean): 85
Systolic ([1]; 2h after dosing, Mean): 109
Diastolic [1, 3]: 75 and 64 and 68 and 76 and 85
MAP [1, 3]: 86 and 76 and 79 and 92 and 93
Systolic [1, 3]: 107 and 100 and 103 and 125 and 111
Diastolic ([1]; 8h after dosing, Mean): 81
MAP ([1]; 8h after dosing, Mean): 93
Systolic ([1]; 8h after dosing, Mean): 119
Diastolic [1, 4]: 78 and 94 and 81 and 74 and 76
MAP [1, 4]: 89 (3×) and 103 and 95
Systolic [1, 4]: 114 and 121 and 123 and 120 and 117
Body weight, Pre-dose ([1]; Mean): 25.3 g
Body weight, Terminal ([1]; Mean): 24.8 g
Body weight, Pre-dose [1, 5]: 25.7 g and 27.0 g and 24.4 g (2×) and 25.0 g
Body weight, Terminal [1, 5]: 24.9 g and 26.8 g and 23.9 g and 23.8 g and 24.5 g
blood pressure or body weight changes ([1]; up to 8 hours after injection): No changes
